What all share (test): NCI-60 cell line screen, 48 h
Experiment [1] concerns ACHN.
Experiment [2] relates to COLO 205.
Experiment [3] has as its system DU-145.
In experiment [4] the test system is HCC 2998.
The test system of experiment [5] is HOP-62.
Experiment [6] concerns K562.
Experiment [7] has as its system KM12.
The subject of experiment [8] is LOX IMVI.
Experiment [9] deals with NCI-H226.
The subject of experiment [10] is NCI-H522.
For experiment [11], the system named is OVCAR-5.
In experiment [12] the test system is PC-3.
In experiment [13] the test system is SK-MEL-2.
In experiment [14] the test system is SNB-75.
Experiment [15] relates to SR.
The test system of experiment [16] is T47D.
Experiment [17] relates to UO-31.
Experiment [18] has as its system A498.
Experiment [19] relates to OVCAR-3.

Consider eleven compounds from ChEMBL document CHEMBL1201862, “PubChem BioAssay data set” (2004).

Structures are written as SMILES.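 These data come from cells grown in 96-well plates and exposed to compound for 48 hours at five concentrations. GI50: concentration for 50% inhibition of growth.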 The source made the active and inactive calls. Cut-off read from the data, not from the text of the source: active = GI50 up to about 1.1 µM and inactive = higher.

`Cc1nc(-c2cc3c(ccc4ccccc43)oc2=O)cs1`: the GI50 in experiment [1] was 63.7 µM (inactive); in [2], > 100 µM (inactive); in experiment [3], > 100 µM (inactive); in [4], > 100 µM (inactive); in [5], 35.7 µM (inactive); in experiment [6], > 100 µM (inactive). Besides, the GI50 is > 100 µM (inactive) in [7]; > 100 µM (inactive) in experiment [8]; 66.4 µM (inactive) in experiment [9]; 35.2 µM (inactive) in experiment [10]; > 100 µM (inactive) in [11]; 70.8 µM (inactive) in experiment [12]. In addition, the GI50 is > 100 µM (inactive) in experiment [13]; 36.6 µM (inactive) in experiment [14]; > 100 µM (inactive) in [15]; > 100 µM (inactive) in experiment [16]; 46.3 µM (inactive) in experiment [17].

With `N#CCCC1(CCC#N)CCCCCCCCC(CCC#N)(CCC#N)C(O)C1O` (stereo unspecified), the GI50 in experiment [18] is 94.6 µM (inactive); in experiment [1], > 100 µM (inactive); in experiment [2] it was > 100 µM (inactive); in [3] it was > 100 µM (inactive); in experiment [4], > 100 µM (inactive); in [5], 61.7 µM (inactive). The GI50 was > 100 µM (inactive) in [6]; > 100 µM (inactive) in [7]; > 100 µM (inactive) in experiment [8]; > 100 µM (inactive) in [9]; 30.3 µM (inactive) in [10]; > 100 µM (inactive) in [19]. The GI50 in experiment [11], in [12], in experiment [13], in experiment [14] and in experiment [16] was > 100 µM (inactive) throughout.

With `COC(=O)c1ccc(-c2nc(C#N)c(N)o2)cc1`, the GI50 in experiment [1] was > 100 µM (inactive); in experiment [2] it was > 100 µM (inactive); in experiment [3], > 100 µM (inactive); in experiment [5], 67.9 µM (inactive); in experiment [6], > 100 µM (inactive); in experiment [7], > 100 µM (inactive). Moreover, the GI50 in experiment [8] was > 100 µM (inactive); in experiment [9] it was > 100 µM (inactive); in experiment [10] it was 39.4 µM (inactive); in [19], > 100 µM (inactive); in experiment [11], > 100 µM (inactive); in experiment [12] it was > 100 µM (inactive). For the same compound, the GI50 in experiment [13], in [15], in experiment [16] and in experiment [17] was > 100 µM (inactive) in each case.

As to `CCN(CC)CCCNc1nncc2cc3c([nH]c4ccccc43)c(C)c12`, the GI50 in experiment [18] is 15.4 µM (inactive); in experiment [1] it was 10.2 µM (inactive); in experiment [2], 8.75 µM (inactive); in [3] it was 12 µM (inactive); in experiment [4] it was 11 µM (inactive); in experiment [5], 12.9 µM (inactive). Further, the GI50 is 7.03 µM (inactive) in [6]; 5.18 µM (inactive) in [7]; 5.18 µM (inactive) in experiment [8]; 11.5 µM (inactive) in [9]; 4.15 µM (inactive) in experiment [10]; 10.4 µM (inactive) in experiment [19]. The GI50 in experiment [11] is 14.4 µM (inactive); in [12], 8.13 µM (inactive); in experiment [13] it was 36.4 µM (inactive); in experiment [14], 13.2 µM (inactive); in experiment [16], 13.3 µM (inactive); in [17], 12.1 µM (inactive).

On to `Cc1cc(C)nc(NS(=O)(=O)c2ccc(NNC(=O)c3cccc4c(NNc5ccc(S(=O)(=O)Nc6nc(C)cc(C)n6)cc5)c5ccccc5nc34)cc2)n1`, for which the GI50 in experiment [1] was 17.3 µM (inactive); in [2], 20.9 µM (inactive); in experiment [3], 19.4 µM (inactive); in experiment [4], 21.4 µM (inactive); in [5], 27.8 µM (inactive); in [6] it was 22.2 µM (inactive). For the same compound, the GI50 in experiment [7] is 17.8 µM (inactive); in [8] it was 17.2 µM (inactive); in experiment [9] it was 25.2 µM (inactive); in [10], 18.1 µM (inactive); in experiment [19] it was 28.3 µM (inactive); in experiment [11], 20.1 µM (inactive). In addition, the GI50 is 24.3 µM (inactive) in experiment [12]; 23.6 µM (inactive) in experiment [13]; 17.7 µM (inactive) in experiment [14]; 20.5 µM (inactive) in experiment [15]; 19.5 µM (inactive) in [16]; 18.9 µM (inactive) in experiment [17].

For the compound `COC(=O)Cc1ccc(Oc2nc3ccccc3nc2-c2cccs2)cc1`, the GI50 was > 100 µM (inactive) in experiment [1]; > 100 µM (inactive) in experiment [2]; > 100 µM (inactive) in experiment [3]; > 100 µM (inactive) in experiment [4]; 38.5 µM (inactive) in [5]; > 100 µM (inactive) in experiment [6]. Moreover, the GI50 was > 100 µM (inactive) in [7]; > 100 µM (inactive) in experiment [8]; 35.7 µM (inactive) in experiment [9]; > 100 µM (inactive) in experiment [10]; > 100 µM (inactive) in experiment [19]; > 100 µM (inactive) in experiment [11]. Also, the GI50 in experiment [12] was > 100 µM (inactive); in experiment [13], 53.5 µM (inactive); in experiment [14], 6.81 µM (inactive); in experiment [15] it was > 100 µM (inactive); in experiment [16] it was > 100 µM (inactive); in [17], > 100 µM (inactive).

As to `COc1ccc(-c2cc(-c3cc(F)c(Cl)cc3Cl)[nH]n2)cc1OC`, the GI50 is 7.76 µM (inactive) in experiment [1]; 19.2 µM (inactive) in [2]; 33.1 µM (inactive) in experiment [3]; 39.9 µM (inactive) in [5]; 46 µM (inactive) in experiment [6]; 26.4 µM (inactive) in [7]. Besides, the GI50 was 18.4 µM (inactive) in [8]; 20.8 µM (inactive) in experiment [9]; 20.2 µM (inactive) in [10]; 15.2 µM (inactive) in experiment [19]; > 100 µM (inactive) in experiment [11]; 21.2 µM (inactive) in experiment [12]. Also, the GI50 in experiment [13] is 79.6 µM (inactive); in experiment [14], 23.3 µM (inactive); in experiment [15], 11.1 µM (inactive); in experiment [16] it was 28.6 µM (inactive); in [17], 85.3 µM (inactive).

Take `COC(=O)/N=[N+](\[O-])C(c1ccc(OC)cc1)C1CCCCC1` (stereo unspecified): the GI50 in experiment [18] was 6.67 µM (inactive); in experiment [1], 2.56 µM (inactive); in experiment [2], 0.611 µM (active); in [3] it was 1.86 µM (inactive); in experiment [4], 2.12 µM (inactive); in experiment [5], 4.84 µM (inactive). Moreover, the GI50 in [6] was 2.67 µM (inactive); in experiment [7] it was 2.39 µM (inactive); in [8] it was 3.33 µM (inactive); in experiment [9] it was 5.16 µM (inactive); in [10], 1.03 µM (active); in experiment [19] it was 6.15 µM (inactive). In addition, the GI50 in experiment [11] was 2.58 µM (inactive); in experiment [12] it was 1.69 µM (inactive); in experiment [13] it was 13.3 µM (inactive); in experiment [14], 5.22 µM (inactive); in experiment [16] it was 0.303 µM (active); in experiment [17], 5.82 µM (inactive).

Turning to `Cn1c(N/N=C/c2ccccc2)nc(-c2ccc([N+](=O)[O-])cc2)c(C#N)c1=O`, the GI50 in experiment [18] was 65.8 µM (inactive); in experiment [1], > 100 µM (inactive); in [2] it was 44.2 µM (inactive); in experiment [3], 34.7 µM (inactive); in experiment [5] it was 77.8 µM (inactive); in [6] it was 1.61 µM (inactive). For the same compound, the GI50 in experiment [7] was 26.9 µM (inactive); in experiment [8], 61.8 µM (inactive); in experiment [10], 23.1 µM (inactive); in [19], 20.5 µM (inactive); in [11], 38.6 µM (inactive); in experiment [12], 59.6 µM (inactive). Moreover, the GI50 was 34.4 µM (inactive) in [13]; 88.5 µM (inactive) in experiment [14]; 2.63 µM (inactive) in experiment [15]; 97.9 µM (inactive) in [16]; 43.6 µM (inactive) in [17].

As for `COc1cc(=O)oc(/C=C/C=C/C=C/C(C)=C\C2(C)OC(C)C(C)(O)C2O)c1C` (stereo unspecified), the GI50 in [18], in experiment [1], in [2], in experiment [3], in experiment [5] and in [6] was > 100 µM (inactive) each time. Also, the GI50 in experiment [7] was 87.9 µM (inactive); in [8] it was > 100 µM (inactive); in experiment [9], > 100 µM (inactive); in [19], > 100 µM (inactive); in [11] it was > 100 µM (inactive); in [12], > 100 µM (inactive). Further, the GI50 is > 100 µM (inactive) in [13]; 68.7 µM (inactive) in experiment [14]; > 100 µM (inactive) in experiment [15]; > 100 µM (inactive) in experiment [16]; > 100 µM (inactive) in experiment [17].

As to `CC(C)(C)OC(=O)N1C(OP(=O)(Oc2ccccc2)Oc2ccccc2)=COc2cccnc21`, the GI50 in [1] is 29.9 µM (inactive); in experiment [2], 34.8 µM (inactive); in experiment [3], > 100 µM (inactive); in experiment [4], 42.1 µM (inactive); in [5], 60.5 µM (inactive); in experiment [6], 44.9 µM (inactive). Moreover, the GI50 in experiment [7] was 31.4 µM (inactive); in [8], 26.1 µM (inactive); in [9] it was 69.8 µM (inactive); in experiment [10] it was 47 µM (inactive); in experiment [19], 72.3 µM (inactive); in experiment [11] it was > 100 µM (inactive). Moreover, the GI50 in [12] was 84.5 µM (inactive); in [13], 22.3 µM (inactive); in experiment [14] it was 33.3 µM (inactive); in experiment [15] it was 27.3 µM (inactive); in [16], 23 µM (inactive); in experiment [17] it was 42.9 µM (inactive).
